In ChEMBL document CHEMBL1155629, “Cytotoxic prenyleudesmane diterpenes from the fruits of Dysoxylum kuskusense” (2000) one finds EC50 data, which are given here for two compounds.

Values after ≈ are worked out from the molar mass of the structure shown.

Type in all cases: functional
Common to all, as to settings: read-out: ED50 (the source's name)

The subject of assay [1] is A549. Put plainly: Cytotoxicity against human A549 cells.
Assay [2] relates to HT-29. The assay is described as follows: Cytotoxicity against human HT29 cells.
The test system of assay [3] is P388. The assay is described as follows: Cytotoxicity against mouse P388 cells.

On to `CC(C)=CC(=O)/C=C(\C)C1CC[C@@]2(C)CC(=O)C=C(C)[C@@H]2C1` (stereo partly specified) [DYSOKUSONE D], for which the EC50 in assay [1] amounted to 2.39 µg/mL (≈ 7.95 µM); in assay [2] it was 4.68 µg/mL (≈ 15.6 µM); in assay [3], 3.87 µg/mL (≈ 12.9 µM).

Regarding `CC1=CC(=O)C[C@]2(C)CCC(/C(C)=C/C=C/C(C)(C)O)C[C@@H]12` (stereo partly specified) [DYSOKUSONE E], the EC50 in assay [1] is 3.76 µg/mL (≈ 12.4 µM); in assay [2] it was 4.89 µg/mL (≈ 16.2 µM); in assay [3], 2.64 µg/mL (≈ 8.73 µM).
